From patent EP1772146A1, “Polyunsaturated fatty acids as bace inhibitors” (Neuropharma, S.A., priority 2005, dated 2007)
Like-named read-outs stand apart in the source and are kept apart here.

Biological target: T1, rhBACE-1 β-Secretase recombinant human (Homo sapiens, UniProt P56817)
T1 construct: purchased R&D Systems 931-AS
Experiment: BACE assay (FRET, fluorogenic peptide substrate cleavage)
Assay type: biochemical
Settings: for activity at 10 µM: read-out: % BACE Activity (10^-5 M)
Description: The aim of this assay is to determine if a compound, either synthetic or of marine origin, is a BACE-1 inhibitor, to avoid the formation of Aβ. This assay is based on FRET technology (Fluorescence Resonance Energy Transfer). FRET is used to measure cleavage of a peptide substrate, among other uses. […] When a substrate peptide cleavage occurs, the energy balance is broken and all the donor fluorescence can be observed. The increase in fluorescence is linearly related to the rate of proteolysis (Gordon, GW et al., 1998). In this assay the reaction occurs between an enzyme, purified BACE-1, and a fluorogenic peptidic substrate who present the "Swedish mutation". The peptide cleavage by BACE-1 produces fluorescence energy and enzymatic activity can be quantified. The reagents which are used in this assay are the following: • rhBACE-1 β-Secretase recombinant human (R&D Systems. Ref. 931-AS). • Fluorogenic Peptide Substrate IV (R&D Systems. Ref. ES004). • B-SECRETASE INHIBITOR H-4848. (BACHEM. Ref. H-4848.0001). • FLUOSTAR OPTIMA plate reader with 320 nm excitation filter and 405 nm emission filter (Biogen cientifica). • Black microwell plate, 96 wells (Nunc. Ref. 00006877). Supplier: Dismadel. • Sodium acetate.
The assay is carried out in a 96 wells microplate. The final concentration of substrate is 3,5 µM per well, and the enzyme concentration is 0,5 µg/ml. The final volume of the assay is 100 µl per well and all reagents are diluted in Reaction Buffer. The compounds are tested at a concentration of 10^-5. The control in the assay is the commercial inhibitor β-Secretase inhibitor H-4848, which is tested at 300 nM. All the samples and controls are studied by duplicate.
The plate is mixed gently and changes in the fluorescence are measured using the plate reader, with "BACE" protocol. The temperature should be preferably maintained between 25 and 30 °C. Measurements are carried out every ten minutes during an hour. The first measure is subtracted from the last to calculate the fluorescence increase, evaluating the enzymatic activity. The 100% activity is calculated as the mean of the results of wells without sample or inhibitor.
Further information regarding this assay may be found in the following references, which are incorporated by reference into the present application: • Andrau, D et al; "BACE1- and BACE2-expressing human cells: characterization of beta-Amyloid precursor protein-derived catabolites, design of a novel fluorimetric assay, and identification of new in vitro inhibitors". J Biol Chem. 2003 Jul 11;278(28):25859-66. Gordon, GW et al; "Quantitative fluorescence resonance energy transfer measurements using fluorescence microscopy." Biophys J. 1998 May; 74:2702-13.

[1] = comparative examples (derivatives of arachidonic acid) at 10^-5 M, mean results, remaining enzyme activity, 100% = wells without sample or inhibitor
[2] = fatty acids of formula (I) at 10^-5 M, mean results, remaining enzyme activity, 100% = wells without sample or inhibitor

T1 sequence (P56817 46-457 limits assumed): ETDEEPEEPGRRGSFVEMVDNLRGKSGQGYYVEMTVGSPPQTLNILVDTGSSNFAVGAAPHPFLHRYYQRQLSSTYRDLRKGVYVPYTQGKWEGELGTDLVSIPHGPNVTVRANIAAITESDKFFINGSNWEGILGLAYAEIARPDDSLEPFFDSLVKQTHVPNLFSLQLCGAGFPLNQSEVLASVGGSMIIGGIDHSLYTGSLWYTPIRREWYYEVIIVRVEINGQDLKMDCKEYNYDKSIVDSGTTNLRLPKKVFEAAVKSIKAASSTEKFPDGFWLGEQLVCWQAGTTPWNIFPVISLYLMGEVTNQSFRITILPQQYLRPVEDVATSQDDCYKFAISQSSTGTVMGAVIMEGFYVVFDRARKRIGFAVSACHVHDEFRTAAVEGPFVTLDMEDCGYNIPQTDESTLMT

| Compound | activity at 10 µM [1] | activity at 10 µM | further results |
| --- | --- | --- | --- |
| Cyclopropanecarboxylic acid icosa-5,8,11,14-tetraenylam ide [Arachidonylcyclopropylamide (ACPA)] | – | – | % BACE Activity (10^-5 M) (comparative examples (derivatives of arachidonic acid) at 10^-5 M, mean results, remaining enzyme activity, 100% = wells without sample or inhibitor, 10 µM): 100% |
| CCCCCC=CCC=CCC=CCC=CCCCC(=O)OCC [Ethyl arachidonate, 5,8,11,14-Eicosatetraenoic acid ethyl ester] | 100% | – | – |
| CC/C=C\C/C=C\C/C=C\C/C=C\C/C=C\C/C=C\CCC(=O)O [Docosahexaenoic acid (DHA), cis-4,7,10,13,16,19-Docosahexaenoic Acid] | – | – | activity at 10 µM [2]: 82% |
| CCCCCC=CCC=CCC=CCC=CCCCCOC(C)=O [Arachidonyl Acetate, Acetic acid icosa-5,8,11,14-tetraenyl ester] | 100% | – | – |
| CCCCCC=CCC=CCC=CCC=CCCCCO [Arachidonyl alcohol, Icosa-5,8,11,14-tetraen-1-ol] | 100% | – | – |
| CCCCCC=CCC=CCC=CCC=CCCCC(=O)NCCO [Anandamide, Icosa-5,8,11,14-tetraenoic acid (2-hydroxy-ethyl)-amide] | – | 100% | – |
| CCCCC/C=C\C/C=C\C/C=C\C/C=C\CCCC(=O)O [Arachidonic acid, cis,cis,cis,cis-5,8,11,14-Eicosatetraenoic acid] | – | 48.7% | – |
| CCCCC/C=C\C/C=C\CCCCCCCC(=O)O [Linoleic acid, cis-9,cis-12-Octadecadienoic acid] | – | – | activity at 10 µM [2]: 55% |
| CC/C=C\C/C=C\C/C=C\CCCCCCCC(=O)O [Linolenic acid, cis,cis,cis-9,12,15-Octadecatrienoic acid] | – | 55.5% | – |
